Columns and labels:
Human PKMYT1 = molecular target: T1, Human PKMYT1 (Homo sapiens, UniProt Q99640); experiment: PKMYT1 biochemical ADP-Glo enzymatic assay
T1 construct: Human PKMYT1 75-362 was cloned as a TEV cleavable 6xHis fusion; 6xHis (TEV cleavable) (cleaved yes); made in house; host or cells: bacterial cells
T1 sequence (Q99640 75-362): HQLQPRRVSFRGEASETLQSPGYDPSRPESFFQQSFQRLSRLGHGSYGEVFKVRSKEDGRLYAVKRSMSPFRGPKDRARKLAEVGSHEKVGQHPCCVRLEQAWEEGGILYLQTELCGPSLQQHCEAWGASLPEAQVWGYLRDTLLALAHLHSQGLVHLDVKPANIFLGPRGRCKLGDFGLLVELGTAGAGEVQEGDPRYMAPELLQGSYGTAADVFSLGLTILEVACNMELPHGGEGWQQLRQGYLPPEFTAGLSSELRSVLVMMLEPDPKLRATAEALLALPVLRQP
In short: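 Purified untagged human PKMYT1 75-362 at 15 nM final was tested in HEPES pH 7.5 with MgCl2, EGTA, Brij-35 and 1% DMSO. Intrinsic ATPase activity was measured with 500 uM ATP over 60 min at 26° C. ADP-Glo luminescence was read and IC50 fitted from 10-point, 3-fold dilution curves.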

WEE1 = molecular target: T2, WEE1 (Homo sapiens, UniProt P30291); experiment: Selectivity versus WEE1 assay (ADP-Glo enzymatic assay); type: biochemical; settings: for IC50: ADP-Glo; for PKMYT1 vs. WEE1 selectivity: fold difference in selectivity for PKMYT1 over WEE1
T2 construct: purchased Thermo Fisher PR7373A
T2 sequence (P30291 whole entry): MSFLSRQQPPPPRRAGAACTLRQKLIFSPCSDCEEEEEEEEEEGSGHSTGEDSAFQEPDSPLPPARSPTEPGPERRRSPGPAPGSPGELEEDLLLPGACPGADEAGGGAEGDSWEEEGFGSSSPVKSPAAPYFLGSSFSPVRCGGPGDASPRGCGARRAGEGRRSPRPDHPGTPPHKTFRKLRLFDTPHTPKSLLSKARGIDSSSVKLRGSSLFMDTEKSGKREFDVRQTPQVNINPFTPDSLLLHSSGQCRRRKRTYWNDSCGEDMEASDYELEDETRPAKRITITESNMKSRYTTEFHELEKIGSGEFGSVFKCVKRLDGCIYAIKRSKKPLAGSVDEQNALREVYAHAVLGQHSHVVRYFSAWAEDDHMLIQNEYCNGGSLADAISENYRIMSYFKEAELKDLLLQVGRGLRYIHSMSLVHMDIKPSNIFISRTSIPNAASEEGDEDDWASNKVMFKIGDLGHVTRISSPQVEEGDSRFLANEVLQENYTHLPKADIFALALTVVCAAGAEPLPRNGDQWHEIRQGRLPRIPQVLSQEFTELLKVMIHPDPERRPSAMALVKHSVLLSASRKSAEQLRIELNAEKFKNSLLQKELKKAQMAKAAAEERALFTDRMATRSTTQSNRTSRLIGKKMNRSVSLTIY
In short: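 WEE1 at 15 nM final in 50 mM HEPES pH 7.5, 10 mM MgCl2, 1 mM EGTA, 0.01% Brij-35, 1% DMSO; reaction started with 30 µM ATP, 60 min at 26 °C. ADP-Glo luminescence; IC50 from dose-response curves, replicates within 3-fold and r2 >0.9.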

[1] = ADP-Glo, 15 nM PKMYT1 kinase domain, 500 µM ATP, 60 minutes at 26° C., banded
[2] = 15 nM WEE1, 60 minutes at 26° C., banded
[3] = banded, ">N" = at least in this band but could be higher
[4] = PKMYT1 kinase domain 15 nM, ADP-Glo, banded values

SMILES	IC50 (Human PKMYT1; [1]) [nM]	IC50 (WEE1; [2]) [nM]	PKMYT1 vs. WEE1 selectivity (WEE1; [3])	further results
Cc1ccc(O)c(C)c1NC(=O)c1cnc(Nc2cccc(C(=O)N3CC4CCC3C4)c2)s1 (stereo not drawn) [BAA-289, 2-((3-(2-azabicyclo[2.2.1]heptane-2-carbonyl)phenyl)amino)-N-(3-hydroxy-2,6-dimethylphenyl)thiazole-5-carboxamide]	< 50	1000 to 11000	X (100-<1000 fold)	
Cc1ccc(O)c(C)c1NC(=O)c1cnc(NCCCN2CCOCC2)s1 [BAA-065, N-(3-hydroxy-2,6-dimethyl-phenyl)-2-(3-morpholinopropylamino)thiazole-5-carboxamide]	50 to 1000	> 11000	>X (100-<1000 fold)	
Cc1ccc(O)c(C)c1NC(=O)c1cnc(Nc2ccn(CCCO)n2)s1 [BAA-002, N-(3-Hydroxy-2,6-dimethyl-phenyl)-2-[[1-(3-hydroxypropyl)pyrazol-3-yl]amino]thiazole-5-carboxamide]	< 50	1000 to 11000	W (10-<100 fold)	
Cc1ccc(O)c(C)c1NC(=O)c1cnc(Nc2ccn([C@H]3CCN(C(=O)OC(C)(C)C)C3)n2)s1 [BAA-042]	50 to 1000	> 11000	>X (100-<1000 fold)	
Cc1ccc(O)c(C)c1NC(=O)c1cnc(Nc2ccc(S(=O)(=O)C(F)(F)F)cc2)s1 [BAA-285, N-(3-hydroxy-2,6-dimethylphenyl)-2-((4. ((trifluoromethyl)sulfonyl)phenyl)amino) thiazole-5-carboxamide]	1000 to 11000	> 11000	W (10-<100 fold)	
Cc1ccc(O)c(C)c1NC(=O)c1cnc(Nc2ccn(CC(=O)N3CC4(C3)CN(C(=O)OC(C)(C)C)C4)n2)s1 [BAA-144, tert-butyl 6-[2-[3-[[5-[(3-hydroxy-2,6-dimethyl-phenyl)carbamoyl]thiazol-2-yl]amino]pyrazol-1-yl]acetyl]-2,6-diazaspiro[3.3]heptane-2-carboxylate]	< 50	1000 to 11000	X (100-<1000 fold)	
COCCNC(=O)Cn1ccc(Nc2ncc(C(=O)Nc3c(C)ccc(O)c3C)s2)n1 [BAA-166, N-(3-hydroxy-2,6-dimethyl-phenyl)-2-[[1-[2-(2-methoxyethylamino)-2-oxo-ethyl]pyrazol-3-yl]amino]thiazole-5-carboxamide]	< 50	> 11000	Y (1000-5000 fold)	
CCOc1ccc(Nc2ncc(C(=O)Nc3c(C)ccc(O)c3C)s2)cc1 [BAA-503, 2-((4-ethoxyphenyl)amino)-N-(3-hydroxy-2,6-dimethylphenyl)thiazole-5-carboxamide]				IC50 (Human PKMYT1; [4]): 50 to 1000 nM; IC50 (WEE1; WEE1 15 nM, banded values): 1000 to 11000 nM; PKMYT1 vs. WEE1 selectivity (WEE1; banded): W (10-<100 fold)
Cc1ccc(O)c(C)c1NC(=O)c1cnc(NCc2ccccn2)s1 [BAA-349, N-(3-hydroxy-2,6-dimethylphenyl)-2-((pyridin-2-ylmethyl)amino) thiazole-5-carboxamide]	50 to 1000	> 11000	X (100-<1000 fold)	
Cc1ccc(O)c(C)c1NC(=O)c1cnc(Nc2ccn(C(C)C)n2)s1 [BAA-008, N-(3-hydroxy-2,6-dimethyl-phenyl)-2-[(1-isopropylpyrazol-3-yl)amino]thiazole-5-carboxamide]	50 to 1000	1000 to 11000	X (100-<1000 fold)	
Cc1ccc(O)c(C)c1NC(=O)c1cnc(Nc2ccn(CC(=O)N(C)C)n2)s1 [BAA-117, 2-[[1-[2-(Dimethylamino)-2-oxo-ethyl]pyrazol-3-yl]amino]-N-(3-hydroxy-2,6-dimethyl-phenyl)thiazole-5-carboxamide]	< 50	> 11000	Y (1000-5000 fold)	
CCC(C(=O)N(C)C)n1ccc(Nc2ncc(C(=O)Nc3c(C)ccc(O)c3C)s2)n1 (stereo not drawn) [BAA-507, 2-((1-(1-(dimethylamino)-1-oxobutan-2-yl)-1H-pyrazol-3-yl)amino)-N-(3-hydroxy-2,6-dimethylphenyl)thiazole-5-carboxamide]				IC50 (Human PKMYT1; [4]): < 50 nM; IC50 (WEE1; WEE1 15 nM, banded values): > 11000 nM; PKMYT1 vs. WEE1 selectivity (WEE1; banded): X (100-<1000 fold)
Cc1ccc(O)c(C)c1NC(=O)c1cnc(Nc2ncn(C)n2)s1 [BAA-265, N-(3-hydroxy-2,6-dimethylphenyl)-2-((1-methyl-1H-1,2,4-triazol-3-yl)amino)thiazole-5-carboxamide]	< 50	> 11000	X (100-<1000 fold)	
Cc1ccc(O)c(C)c1NC(=O)c1cnc(Nc2ccnc(-c3ccc(F)cc3)c2)s1 [BAA-304, 2-((2-(4-fluorophenyl)pyridin-4-yl)amino)-N-(3-hydroxy-2,6-dimethylphenyl)thiazole-5-carboxamide]	50 to 1000	> 11000	X (100-<1000 fold)	
CCc1c(O)ccc(C)c1NC(=O)c1cnc(Nc2ccn(C)n2)s1 [BAA-469, N-(2-Ethyl-3-hydroxy-6-methylphenyl)-2-((1-methyl-1H-pyrazol-3-yl)amino)thiazole-5-carboxamide]				IC50 (Human PKMYT1; [4]): 50 to 1000 nM; IC50 (WEE1; WEE1 15 nM, banded values): > 11000 nM; PKMYT1 vs. WEE1 selectivity (WEE1; banded): X (100-<1000 fold)
Cc1ccc(O)c(C)c1NC(=O)c1cnc(Nc2ncc(C(C)(C)C)o2)s1 [BAA-449, 2-((5-(tert-butyl)oxazol-2-yl)amino)-N-(3-hydroxy-2,6-dimethylphenyl)thiazole-5-carboxamide]				IC50 (Human PKMYT1; [4]): 50 to 1000 nM; IC50 (WEE1; WEE1 15 nM, banded values): > 11000 nM; PKMYT1 vs. WEE1 selectivity (WEE1; banded): W (10-<100 fold)
Cc1ccc(O)c(C)c1NC(=O)c1cnc(N)s1 [BAA-001, 2-Amino-N-(3-hydroxy-2,6-dimethyl-phenyl)thiazole-5-carboxamide]	50 to 1000	> 11000	X (100-<1000 fold)	IC50 (Human PKMYT1; PKMYT1 biochemical ADP-Glo enzymatic assay, Comparison Data 1): 327 nM; improvement in PKMYT1 IC50 as compared to REF-001 (Human PKMYT1; vs REF-001): 163 fold; improvement in PKMYT1 IC50 as compared to REF-002 (Human PKMYT1; vs REF-002): 82 fold
Cc1ccc(O)c(C)c1NC(=O)c1cnc(Nc2ccn(CC(=O)N3CCN(C(=O)CC(C)C)CC3)n2)s1 [BAA-198, N-(3-hydroxy-2,6-dimethyl-phenyl)-2-[[1-[2-[4-(3-methylbutanoyl)piperazin-1-yl]-2-oxo-ethyl]pyrazol-3-yl]amino]thiazole-5-carboxamide]	< 50	> 11000	Y (1000-5000 fold)	
Cc1ccc(O)c(C)c1NC(=O)c1cnc(Nc2nn(C)cc2C#N)s1 [BAA-496, 2-((4-cyano-1-methyl-1H-pyrazol-3-yl)amino)-N-(3-hydroxy-2,6-dimethylphenyl)thiazole-5-carboxamide]				IC50 (Human PKMYT1; [4]): < 50 nM; IC50 (WEE1; WEE1 15 nM, banded values): > 11000 nM; PKMYT1 vs. WEE1 selectivity (WEE1; banded): Y (1000-5000 fold)
COCCn1ccc(Nc2ncc(C(=O)Nc3c(C)ccc(O)c3C)s2)n1 [BAA-040]	50 to 1000	> 11000	X (100-<1000 fold)	
Cc1ccc(O)c(C)c1NC(=O)c1cnc(Nc2ccn([C@@H]3CCN(C(=O)CC4CCOCC4)C3)n2)s1 [BAA-090]	50 to 1000	> 11000	>X (100-<1000 fold)	
Cc1ccc(O)c(C)c1NC(=O)c1cnc(NCC2CCN(C(=O)Cc3ccc(Cl)cc3)CC2)s1 [BAA-214, 2-[[1-[2-(4-chlorophenyl)acetyl]-4-piperidyl]methylamino]-N-(3-hydroxy-2,6-dimethyl-phenyl)thiazole-5-carboxamide]	50 to 1000	> 11000	>X (100-<1000 fold)	
Cn1ccc(Nc2ncc(C(=O)Nc3c(F)ccc(O)c3Cl)s2)n1 [BAA-480, N-(2-Chloro-6-fluoro-3-hydroxyphenyl)-2-((1-methyl-1H-pyrazol-3-yl)amino)thiazole-5-carboxamide]				IC50 (Human PKMYT1; [4]): 50 to 1000 nM; IC50 (WEE1; WEE1 15 nM, banded values): > 11000 nM; PKMYT1 vs. WEE1 selectivity (WEE1; banded): X (100-<1000 fold)
Cc1ccc(O)c(C)c1NC(=O)c1cnc(Nc2cc(C(=O)O)n(C)n2)s1 [BAA-118, 5-[[5-[(3-hydroxy-2,6-dimethyl-phenyl)carbamoyl]thiazol-2-yl]amino]-2-methyl-pyrazole-3-carboxylic acid]	< 50	> 11000	X (100-<1000 fold)	
Cc1ccc(O)c(C)c1NC(=O)c1cnc(Nc2cc(C(=O)O)nn2C)s1 [BAA-121, 5-[[5-[(3-hydroxy-2,6-dimethyl-phenyl)carbamoyl]thiazol-2-yl]amino]-1-methyl-pyrazole-3-carboxylic acid]	50 to 1000	> 11000	X (100-<1000 fold)	
Cc1ccc(O)c(C)c1NC(=O)c1cnc(Nc2ccn(CC(=O)N3CCN(C4CCC4)CC3)n2)s1 [BAA-185]	50 to 1000	> 11000	>Y (1000-5000 fold)	

From US20260297042A1, “BIARYLAMIDE DERIVATIVES AND THEIR USE AS PKMYT1 INHIBITORS” (CANCER RESEARCH TECHNOLOGY LIMITED, priority 2023, published 2026)
